≈ marks a conversion by molar mass, not a printed value. Entries after “also recorded” stand apart in the source; their conditions may differ.

Data set [1] relates to colorectal adenoma cancer cell line (HT-29). Details: method as in doi:10.1016/j.tet.2006.12.076. Conditions: cancer cell line growth inhibition; cited from earlier work.
The test system of data set [2] is HCT-116. Further details: method as in PMID 37903949. The following applies: cytotoxic activity; cited from earlier work.
The subject of a further data set is HepG2. Details: method as in PMID 32510731. The following applies: antiproliferative activity; cited from earlier work.
The test system of the next data set is MCF-7. Details: method as in PMID 32510731. The following applies: antiproliferative activity; cited from earlier work.
Data set [3] relates to HCT-116. Further details: method as in PMID 32510731. The following applies: antiproliferative activity; cited from earlier work.
Data set [4] deals with PARP1 (poly(ADP-ribose)polymerase 1). Further details: method as in PMID 37843892. Conditions: cited from earlier work.
The subject of data set [5] is PARP2 (poly(ADP-ribose)polymerase 2). Further details: method as in PMID 37843892. The following applies: cited from earlier work.
Data set [6] relates to breast cancer cells (MCF-7). Briefly: MTS-based cytotoxicity assay, MCF-7. It counts as cell-based, human. Conditions: Homo sapiens, MCF7, 72 h, 72 h treatment, 0.205–50 μM, mean ± SEM. On the procedure: (§1) In this study, we applied the most extensively used MTS-based assay, which provides a valuable tool for determining cell viability by evaluating metabolic activity. The cytostatic activity of the tested compounds was defined as the half-maximal inhibitory concentration (IC50) causing a 50% decrease in the metabolic activity of the cells. It was determined against breast cancer (MCF-7), fibrosarcoma (HT-1080), and prostate cancer (PC-3) cells.
(§2) The tested compounds were tested against three different human cancer cell lines (breast adenocarcinoma MCF-7 ATCC® HTB-22^TM, fibrosarcoma HT-1080 ATCC® CCL121^TM, and prostate adenocarcinoma PC-3 ATCC® CRL-1435^TM). For the cell viability experiment, cells were seeded in transparent 96-well plates (FALCON no. 353072, Corning, Durham, NC, USA) in MEM (Gibco no. 31095-029, UK) supplemented with 10% heat-inactivated FBS (Gibco no. 10500-064, UK). The cell seeding density was as follows: MCF-7 12,000 cells/well, HT-1080 7000 cells/well, PC-3 10,000 cells/well. Cells were seeded one day before treatment with the tested compounds and cultured overnight. The confluence on the treatment day was around 30%. The tested compounds were dissolved in DMSO as 10 mM stock solutions and kept under −4 °C. On the day of experimentation, the medium was removed and replaced with a fresh one that contained the following: (1) dimethylsulfoxide (DMSO < 0.1%, vehicle control (Veh)); (2) increasing the concentration of compounds (0.205–50 μM, performed as a 2.5-fold serial dilution for dose–response analysis). Treatment with compounds was carried out for 72 h. Each treatment was replicated three times in a single experiment, with three separate experiments conducted. (n = 9). When significant variability in the results occurred, an additional test was performed on certain compounds. During the incubation, the cells were examined under an inverted microscope to check if the compounds had not precipitated in the culture medium. The inhibitory effect of compounds on the cell was examined using an MTS-based assay (Promega, Madison, WI, USA) following the manufacturer’s protocol. The absorbance was measured at 490 nm using Tecan Spark’s multimode plate reader (Tecan, Männedorf, Switzerland). A reference wavelength of 630 nm was used to subtract the background. IC50 values were calculated by fitting a non-linear regression to a sigmoidal dose–response curve in GraphPad Prism version 8.0.1.

Data set [7] concerns prostate cancer cells (PC-3). Briefly: MTS-based cytotoxicity assay, PC-3. It counts as cell-based, human. The following applies: Homo sapiens, 72 h, 72 h treatment, 0.205–50 μM, mean ± SEM. On the procedure: as §1, §2
The subject of another data set is PC-3 cell line. Put plainly: IncuCyte caspase-3/7 apoptosis induction assay. The class given is cell-based, human. Conditions: PC-3 cells, tested at 1 µM and 10 µM, monitored for 28 h; staurosporine 1 µM positive control. The procedure:
Apoptosis induction tests were conducted using the IncuCyte system to test cells (PC-3) in an in vitro culture. […] The compounds were tested at 1 µM and 10 µM concentrations, and apoptosis was monitored for 28 h (Figure 6). The incubation time was selected based on the induction of apoptosis in the control cells. Staurosporine (STA) at a concentration of 1 µM was used as the positive control, while the negative control cells were treated with 0.1% DMSO (vehicle control). […].
Apoptosis was monitored in real time using the Incucyte® Caspase-3/7 for […] Dyes (Cat. No. 4776, Sartorius, Ann Arbor, MI, USA). The principle of this test is based on binding a DNA intercalating dye with the activation motif (DEVD) of caspase-3/7, allowing a quantitative analysis of cells to undergo caspase-3/7-mediated apoptosis in real time. For the experiment, PC3 cells were seeded in a black 96-well plate with transparent bottom (cat. no. 165305, ThermoScientific, Waltham, MA, USA) at 10,000 cells/well density and cultured overnight. The next day, the medium was removed, and the cells were treated with the tested compound. […] The IncuCyte S3 imaging system recorded kinetic measures of the number of caspase-3/7 positive cells. Repeat scanning to record phase and fluorescence images were every 2 h, for up to 28 h. […]

Data set [8] has as its system fibrosarcoma cells (HT-1080). Briefly: MTS-based cytotoxicity assay, HT-1080. The class given is cell-based, human. Conditions: Homo sapiens, HT-1080, 72 h, 72 h treatment, 0.205–50 μM, mean ± SEM. On the procedure: as §1, §2
The subject of data set [9] is human skin fibroblast (HSF). Briefly: Safety study in vitro (MTS viability), HSF. It counts as cell-based. The following applies: 0.205–50 μM, 72 h. The procedure:
(§3) In drug development, particular attention should be paid to studying the safety profile of compounds. Promising drug candidates should not cause adverse effects on essential organ systems like the liver, kidney, or healthy cells in general. Systemic toxicity of the compound is the main factor limiting its therapeutic application and efficiency. In our study, a preliminary study on nephrotoxicity and hepatotoxicity was evaluated in human embryonic kidney cells (HEK293, ATCC® CRL1573™) and human hepatoma cells (HepG2, ATCC® HB8065™), respectively. HEK293 is commonly used to evaluate the cytotoxicity of nephrotoxic compounds [42]. HepG2 is a well-established in vitro human cell system to study liver toxicity. We also used healthy human skin fibroblast (HSF) to extend the cytotoxicity profile. All three cell lines were cultured in DMEM (Gibco no. 61965-026, UK) supplemented with 10% FBS (Gibco no. 10500-064, UK). For the experiment, cells were seeded (8 × 10^3 cells/100μL/well) in transparent 96-well plates (FALCON no. 353072, Corning, Durham, […], USA) and cultured overnight. […] DOX was a reference compound that adversely affected the liver, kidney, and healthy cells. Treatment with compounds was carried out for 72 h. Cell viability was examined using an MTS-based CellTiter96® AQueous One Solution Cell Proliferation Assay (Promega, Madison, WI, USA) following the manufacturer’s protocol.

Data set [10] deals with human hepatoma cells (HepG2). Put plainly: Safety study in vitro (MTS viability), HepG2. The class given is cell-based. The following applies: 0.205–50 μM, 72 h. The procedure:
as §3

Data set [11] deals with human embryonic kidney cells (HEK293). Put plainly: Safety study in vitro (MTS viability), HEK293. The class given is cell-based. Conditions: 0.205–50 μM, 72 h. On the procedure:
as §3

Data set [12] relates to murine leukemia cell line (L1210). Conditions: cytotoxicity; cited from earlier work.
Data set [13] relates to epidermoid carcinoma cell line (KB). The following applies: cytotoxicity; cited from earlier work.
The test system of the next data set is Jurkat cell line. Further details: method as in PMID 20813537. Conditions: antitumor effect; cited from earlier work.
Data set [14] relates to human lymphocyte cell line (CEM). Further details: method as in PMID 30060562. Conditions: anticancer activity; cited from earlier work.
Data set [15] relates to breast cancer cell line (MCF-7). Details: method as in doi:10.1016/j.tet.2006.12.076. Conditions: cancer cell line growth inhibition; cited from earlier work.

As for `CO[C@@]12[C@H](COC(N)=O)C3=C(C(=O)C(C)=C(N)C3=O)N1C[C@@H]1N[C@@H]12` [Mitomycin C], in data set [1], the “GI, HT-29” value was 31%.

Regarding `O=C(O)c1ccc(NC(=S)NC(=O)c2ccc(-n3c(=O)[nH]c4ccccc4c3=O)cc2)cc1` [Compound 13], the IC50 in the data set with HCT-116 [2] was 1.18 ± 0.06 µM.

Regarding `COc1cc2nccc(Oc3ccc(NC(=O)C4(C(=O)Nc5ccc(F)cc5)CC4)cc3)c2cc1OC` [cabozantinib, reference compound], in the data set with HCT-116 [2], the IC50 is 16.4 ± 0.86 µM.

Turning to `O=C(Cn1c(=O)c2ccccc2n(Cc2ccccc2)c1=O)Nc1ccc(C(=O)N/N=C/c2ccc(Cl)cc2)cc1` [Compound 14], the GI50 with HepG2 was 9.16 ± 0.8 µM; in the data set with MCF-7, 5.27 ± 0.2 µM; in the data set with HCT-116 [3], 5.69 ± 0.4 µM.

With `O=C(c1cc(Cn2c(=O)[nH]c(=O)c3ccccc32)ccc1F)N1CCN(C2CCCC2)C(=O)C1` [Compound 15], in [4], the PARP1 inhibition result was “inhibited”. In addition, the PARP2 inhibition entry in [5] is recorded as “inhibited”.

As to `O=c1c2ccccc2n(C[C@@H]2C[C@@H](P(=O)(OCc3ccccc3)OCc3ccccc3)N(Cc3ccccc3)O2)c(=O)n1Cc1ccccc1F` (relative stereo) [trans-16b, Dibenzyl cis- and trans-5-((3-(2-fluorobenzyl)-3,4-dihydro-2,4-dioxoquinazolin-1(2H)-yl)methyl)-2-benzylisoxazolidin-3-yl-3-phosphonate], the values for the IC50 in [6], in data set [7] and in [8] were 78.7 ± 2.35 µM, 9.84 ± 3.69 µM and 34.6 ± 5.3 µM, respectively. For the same compound, in the data set with PC-3 cell line, the “Induction of apoptosis (caspase-3/7 positive cells)” value was “comparable to that induced with staurosporine; also recorded: highest induction of apoptosis; also recorded: strongly induced apoptosis”. Further, in data set [9], the “Cell viability, HSF” value is on record as “no adverse effect was observed”. Besides, the “Cell viability, HepG2” value in [10] is “did not affect cell viability”. The “Cell viability, HEK293” value in [11] was “did not affect cell viability”.

As for `C(=C/CCCCN1OC(CCCCCCCCc2cccnc2)C2CCCC21)/CCCCCCCCCc1cccnc1` (stereo not drawn) [pyrinodemin A], the “IC50, L1210” value in data set [12] is 0.058 µg/mL (≈ 0.0987 µM). Also, in [13], the “IC50, KB” value is on record as 0.5 µg/mL (≈ 0.85 µM).

For the compound `Cc1cn(C2CC(c3ccccc3Cl)N(C)O2)c(=O)[nH]c1=O` (stereo not drawn) [Compound 5], the IC50 in the data set with Jurkat cell line was 8.8 ± 4.4 µM.

For the compound `O=c1[nH]cc(F)c(=O)[nH]1` [5-Fluorouracil], the “GI, HT-29” value in [1] is given as 34%. Moreover, in data set [14], the IC50 was 18 ± 5 µM. The “GI, MCF-7” value in data set [15] is recorded as 31%.

(Values after article PMC11243672, “New 3-(Dibenzyloxyphosphoryl)isoxazolidine Conjugates of N1-Benzylated Quinazoline-2,4-diones as Potential Cytotoxic Agents against Cancer Cell Lines” (Molecules, 2024).)
